Here are results for 1 molecule from patent US20240277890A1, “ANTIMICROBIAL ARTICLES COMPRISING POLYURETHANE” (Amicoat AS, priority 2021, published 2024).

In brackets after ≈: the same amount, converted by molar mass.

The MIC is the lowest concentration found to suppress growth. Read a high MIC as weaker potency.

The experiment deals with Propionibacterium acnes- antibiotic-resistant clinical isolate. The note with it: P. acnes antibiotic-resistant.

For `CCCCCCNC(=O)[C@H](CCCNC(=N)N)NC(=O)[C@H](Cc1c(C(C)(C)C)[nH]c2c(C(C)(C)C)cc(C(C)(C)C)cc12)NC(=O)[C@@H](N)CCCNC(=N)N` [Compound 8], the MIC came out at 2 µg/mL (≈ 2.6 µM).
